Values quoted from earlier work in patent US6103487A, “Method of treating cancer” (Merck & Co., Inc., priority 1998, dated 2000).

Experiments:
Ras = conditions: inhibits the rate-limiting step in the isoprenoid biosynthetic pathway; positive control
[1] = tested on: farnesyl-protein transferase; conditions: by inhibiting HMG-CoA reductase

| Structure (SMILES) | block of Ras processing in cells (Ras) | Indirect inhibition of farnesyl-protein transferase in vivo [1] |
| --- | --- | --- |
| CC[C@H](C)C(=O)O[C@H]1C[C@@H](C)C=C2C=C[C@H](C)[C@H](CC[C@@H]3C[C@@H](O)CC(=O)O3)[C@H]21 [lovastatin] | blocks Ras processing in cells | Indirect inhibition of farnesyl-protein transferase in vivo has been demonstrated |
| CC[C@H](C)C(=O)O[C@H]1CCC=C2C=C[C@H](C)[C@H](CC[C@@H]3C[C@@H](O)CC(=O)O3)[C@H]21 [compactin] |  | Indirect inhibition of farnesyl-protein transferase in vivo has been demonstrated |
